Values of other authors, collected in US20150338392A1, “Sterile and instantly dissolvable drug membrane and method thereof for testing drug sensitivity of antineoplastic drugs” (priority 2013, published 2015).

Columns and labels:
invasive breast cancer = conditions: clinical, background statement
[1] = system: non-small cell lung cancer; conditions: clinical, background statement

Structure (SMILES)	invasive breast cancer patients who are not sensitive to the drug (invasive breast cancer)	patients who receive no obvious effect [1]
COc1cccc2c1C(=O)c1c(O)c3c(c(O)c1C2=O)C[C@@](O)(C(=O)CO)C[C@@H]3O[C@H]1C[C@H](N)[C@H](O)[C@H](C)O1 [doxorubicin]	50%	
Nc1ccn([C@@H]2O[C@H](CO)[C@@H](O)C2(F)F)c(=O)n1 [Gemzar]		more than 60%
